According to US7989445B2, “Thienopyrimidone compound” (Takeda Pharmaceutical Company Limited, priority 2005, dated 2011):
Where a name gives a salt, the structure may show the parent alone.

Assays:
[1] = biological target: T1, SLC-1 expression CHO cell membrane fraction (MCH receptor) (Homo sapiens, UniProt Q99705); assay: Antagonistic activity of test compound using GTPγS binding assay; type: biochemical, human/rat; settings: [35S]-GTPγS binding stimulated by MCH, 25° C., 1 hr, read-out: inhibitory activity (IC50: nM)
T1 construct: expressed in transfected cells; host or cells: CHO cells (human SLC-1 clone 57 / rat SLC-1 clone 44), membrane fraction
T1 sequence (Q99705 whole entry): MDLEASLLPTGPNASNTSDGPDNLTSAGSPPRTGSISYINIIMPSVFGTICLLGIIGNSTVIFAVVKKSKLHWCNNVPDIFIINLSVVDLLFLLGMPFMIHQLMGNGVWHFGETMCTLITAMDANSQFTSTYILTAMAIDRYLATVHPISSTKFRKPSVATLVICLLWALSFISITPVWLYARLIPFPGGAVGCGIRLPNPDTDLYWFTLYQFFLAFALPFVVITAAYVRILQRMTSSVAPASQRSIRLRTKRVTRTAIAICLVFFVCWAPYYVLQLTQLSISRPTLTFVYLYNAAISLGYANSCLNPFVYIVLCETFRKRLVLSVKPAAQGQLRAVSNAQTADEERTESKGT
Method: Determination of Antagonistic Activity of Test Compound using GTPγS Binding Assay
Using human SLC-1 expression CHO cell clone 57 and rat SLC-1 expression CHO cell clone 44 described in WO01/82925, SLC-1 expression CHO cell membrane fractions were prepared by the following method. In phosphate buffered saline (pH 7.4) supplemented with 5 mM EDTA (ethylenediaminetetraacetic acid) were suspended human and rat SLC-1 expression CHO cells (1×10^8) and centrifuged. Homogenate buffer (10 ml, 10 mM NaHCO3, 5 mM EDTA, pH 7.5) was added to the pellets of the cells and, using Polytron Homogenizer, the mixture was homogenated. The supernatant obtained after centrifugation at 400×g for 15 min was further centrifuged at 100,000×g for 1 hr to give precipitate of the membrane fraction. The precipitate was suspended in 2 ml of an assay buffer [50 mM Tris-HCl (pH 7.5), 1 mM EDTA, 0.1% BSA (bovine serum albumin), 10 mM MgCl2, 100 mM NaCl, 1 μM GDP (guanosine 5′-diphosphate), 0.25 mM PMSF (phenylmethylsulfonyl fluoride), […] pepstatin, […] leupeptin, […] phosphoramidon] and centrifuged at 100,000×g for 1 hr. The membrane fraction recovered as precipitate was suspended again in 20 ml of an assay buffer, and after dispensing, preserved at −80° C. and used upon thawing each time when in use.
The antagonistic activity of the test compound was determined as follows. The SLC-1 expression CHO cell membrane fraction (171 μl) diluted with an assay buffer was dispensed to a polypropylene 96 well plate and 3×10^−10 M MCH (2 μl) diluted with DMSO solution, test compound solution (2 μl) diluted to various concentrations and [^35S]-Guanosine 5′-(γ-thio)triphosphate ([…] Daiichi Pure Chemicals Co., Ltd.) were respectively added (cell membrane final concentration: 20 μg/ml, [^35S]-Guanosine 5′-(γ-thio)triphosphate final concentration: 0.33 nM). The reaction mixture was reacted at 25° C. for 1 hr with stirring, suction filtered with a glass filter (GF-C) and washed 3 times with a wash solution (300 μl, 50 mM Tris-HCl buffer, pH 7.5). Liquid scintillator ([…]) was added to the glass filter and the residual radioactivity was determined by a liquid scintillation counter. Binding inhibition (%)=(radioactivity upon addition of test compound and MCH−radioactivity upon addition of DMSO solution)/(radioactivity upon addition of MCH−radioactivity upon addition of DMSO solution)×100
From the binding inhibition (%), IC50 of the test compound was calculated.

Row | SMILES | melting point | IC50 [1]
1 | O=c1c2sc(-c3ccc(Cl)cc3)cc2ncn1CCc1ccc(CN2CCCC2)cc1 [Example 1, 6-(4-chlorophenyl)-3-{2-[4-(pyrrolidin-1-ylmethyl)phenyl]ethyl}thieno[3,2-d]pyrimidin-4(3H)-one] | 163 to 166 °C | 0.3 nM
2 | CN(C)C(=S)N(C)Cc1ccc(CCn2cnc3cc(-c4ccc(Cl)cc4)sc3c2=O)cc1 [Example 9, N-(4-{2-[6-(4-chlorophenyl)-4-oxothieno[3,2-d]pyrimidin-3(4H) -yl]ethyl}benzyl)-N,N′,N′-trimethylthiourea] | 156 to 158 °C | 4.7 nM
3 | CC(c1ccc(CCn2cnc3cc(-c4ccc(Cl)cc4)sc3c2=O)cc1)N1CCCCC1 (stereo not drawn) [Example 2, 6-(4-chlorophenyl)-3-{2-[4-(1-piperidin-1-ylethyl)phenyl]ethyl}thieno[3,2-d]pyrimidin-4(3H)-one] | 175 to 179 °C | 0.4 nM
4 | O=c1c2sc(-c3ccc(Cl)cc3)cc2ncn1CCc1ccc(CN2CC[C@H](F)C2)cc1 [Example 18, 6-(4-chlorophenyl)-3-[2-(4-{[(3S)-3-fluoropyrrolidin-1-yl]methyl}phenyl)ethyl]thieno[3,2-d]pyrimidin-4(3H)-one] | – | 1.2 nM
5 | CC(=O)N(C)Cc1ccc(CCn2cnc3cc(-c4ccc(Cl)cc4)sc3c2=O)cc1 [Example 6, N-(4-{2-[6-(4-chlorophenyl)-4-oxothieno[3,2-d]pyrimidin-3(4H) -yl]ethyl}benzyl)-N-methylacetamide] | 176 to 178 °C | 4.8 nM
6 | CN(CC(N)=O)Cc1ccc(CCn2cnc3cc(-c4ccc(Cl)cc4)sc3c2=O)cc1 [Example 32, N^2-(4-{2-[6-(4-chlorophenyl)-4-oxothieno[3,2-d]pyrimidin-3(4H) -yl]ethyl}benzyl)-N^2-methylglycinamide] | 207 to 212 °C | 5 nM
7 | CNCc1ccc(CCn2cnc3cc(-c4ccc(Cl)cc4)sc3c2=O)cc1 [Example 4, 6-(4-chlorophenyl)-3-(2-{4-[(methylamino)methyl]phenyl}ethyl)thieno[3,2-d]pyrimidin-4(3H)-one dihydrochloride] | – | 0.4 nM
8 | O=C1CCCN1Cc1ccc(CCn2cnc3cc(-c4ccc(Cl)cc4)sc3c2=O)cc1 [Example 11, 6-(4-chlorophenyl)-3-(2-{4-[(2-oxopyrrolidin-1-yl)methyl]phenyl}ethyl)thieno[3,2-d]pyrimidin-4(3H)-one] | 218 to 221 °C | 3.2 nM
9 | CC(=O)N(C)N(C)c1ccc(CCn2cnc3cc(-c4ccc(Cl)cc4)sc3c2=O)cc1 [Example 22, N′-[4-[2-[6-(4-chlorophenyl)-4-oxothieno[3,2-d]pyrimidin-3(4H)-yl]ethyl]phenyl]-N,N′-dimethylacetohydrazide] | – | 10 nM
